Columns and labels:
Assay type in all cases: in vivo, Hartley male guinea pigs
[1] = system: ACh-induced airway contraction in guinea pigs; assay: Acetylcholine-induced pulmonary inflation pressure change before and after saline inhalation (preliminary test); details: for PIP increase (ΔPIP) induced by intravenous ACh, Post value / PIP increase (ΔPIP) induced by intravenous ACh, Pre value / Difference between Pre value and Post value of ACh-induced PIP increase: 30 mg/kg to the duodenum prior to saline inhalation; for PIP increase (ΔPIP) induced by intravenous ACh, Post value: after saline inhalation; for PIP increase (ΔPIP) induced by intravenous ACh, Post value / PIP increase (ΔPIP) induced by intravenous ACh, Pre value: mean±standard error of three cases; for PIP increase (ΔPIP) induced by intravenous ACh, Pre value: before saline inhalation; for Difference between Pre value and Post value of ACh-induced PIP increase: paired t-test
Protocol: (§1) Hartley male guinea pigs (from Nippon SLC) were raised at a constant temperature (22 to 23° C.) and a constant humidity (50 to 60%) for 2 weeks, and healthy animals of those having a body weight of from 150 to 250 g were used in the test. The guinea pigs were anesthetized with urethane (1.2 g/kg) and subjected to tracheotomy and cannulation. The tracheal cannula was connected to an artificial respiration device for small animals (Model 7025, UGO BASIL by VARASE), and artificial respiration (breathing rate, 60/min; 10 ml/kg) was performed. As an airway contraction index thereof, the pulmonary inflation pressure (hereinafter abbreviated to […], its unit being cmH2O) of the test animal was measured via a pressure transducer (TP-603, by Nippon Kodensha). In addition, a cannula was inserted into the carotid […] of the test animal, and the blood pressure through it was also measured via a pressure transducer (Life KitDX-360, by Nippon Kodensha). After the operation, the guinea pigs were left as such for about 5 minutes, and after the base PIP thereof was stabilized, the test with them was started. 50 μg/kg acetylcholine (hereinafter referred to as ACh, by Sigma) was intravenously administered to each test animal to induce airway contraction therein. After the elevated PIP was lowered to the base line thereof, ACh of the same concentration was again intravenously administered. This operation was repeated until the PIP increase (ΔPIP) was stabilized. After the ΔPIP stabilization was confirmed, ACh was intravenously administered
(§2) (30 μg/kg or 40 μg/kg), and the value ΔPIP in this stage was referred to as a Pre value. 30 minutes thereafter, each test animal was made to inhale 0.1 µg/ml of LTD4 (by Funakoshi) for 30 seconds via an ultrasonic nebulizer (NE-U12, by Omron), and after 15 minutes, ACh was again intravenously administered (30 μg/kgor40μg/kg) to each test animal to induce airway contraction therein. The value ΔPIP in this stage was rendered as a Post value. Relative to those of the LTD4 administration group, the animals of the control group were made to inhale saline in place of LTD4. The Post value and the Pre value were compared with each other in the control group and the LTD4 administration group, and the difference was an index of airway hypersensitiveness expression.
(§3) 30 minutes before the start of the LTD 4 inhalation, a test substance was administered to the duodenum of each test animal. In place of the test substance, 0.5% methyl cellulose (hereinafter abbreviated to MC) was administered to the animals of the control group relative to those of the test substance-administration group.
(§4) The data obtained were expressed as the mean value±standard error thereof. A statistical analysis soft SAS was used for significance test. For significance test of two groups, paired t-test was carried out (FIG. 1, FIG. 2); and for comparison test of multiple groups, Bartlet test was followed by 1-way ANOVA and Dunnett's multiple comparison test. In every test, p<0.05 indicates a significant difference.
The PIP increase (Pre value, white column) induced by the intravenous ACh administration (40 µg/kg) was 8.40±0.76 cmH2O; while the PIP increase (Post value, black column) after the inhalation of saline, as used for a solvent for LTD4 was 8.30±1.07cmH2.
Orotic acid and zinc orotate each were suspended in 0.5% MC just before use.
Orotic acid, zinc orotate (30 mg/kg) or 0.5% MC was intraduodenally administered 30 minutes before the inhalation of saline. The data obtained are expressed as the mean value±standard error of three cases. N.S. (not significant) indicates no statistically significant difference.

[2] = system: LTD4-induced airway hypersensitiveness in guinea pigs; assay: LTD4-induced airway hypersensitive reaction; details: for ID50 of airway hypersensitiveness inhibition: intraduodenal administration 30 minutes before LTD4 inhalation, guinea pigs; for Airway hypersensitiveness inhibition versus control group: orotic acid 10 to 30 mg/kg, zinc orotate 10, 30 mg/kg to the duodenum
Protocol: This was to confirm the presence or absence of antiasthmatic effect of orotic acid and zinc orotate. Concretely, the effect of orotic acid and zinc orotate against leukotriene D4 (hereinafter abbreviated to LTD4)-induced airway hypersensitive reaction was investigated in the manner described below.
Expression of LTD4-induced airway hypersensitiveness was carried out according to the method of Sato et al [Clinical and Experimental Allergy, 26, 957-963 (1996)], as shown below:
as §1, §2, §3
as §4, with “In every test, p<0.05 indicates a significant difference.” left out

[3] = system: ovalbumin (OA)-sensitized guinea pigs; assay: Cell invasion in bronchovesicular washing fluid (BALF) of ovalbumin-sensitized guinea pigs after antigen induction; details: for Number of eosinophils invaded in BALF / Number of the total cells invaded in BALF: 24 hours after induction
Protocol: The present test was carried out according to the method mentioned below, with reference to the method of Lagente et al [Clin. Exp. Allergy, 23, 1002-1010 (1993)] and the method of Dunn et al [Am. Rev. Resp. Dis., 137, 541-547 ([…])].
Hartley male guinea pigs (from Nippon Charles River) were raised at a constant temperature (22 to 23° C.) and a constant humidity (50 to 60%) and healthy animals of those having a body weight of from 350 to 450 g were used in the test. The guinea pigs were put in a plastic box (30×50×30 cm), and made to inhale 2 mg/ml of a solution of ovalbumin (hereinafter sometimes abbreviated to OA, from Sigma Aldrich) for30minutes, twice at an interval of 48 hours for […] sensitization. An ultrasonic nebulizer (NE-U12, by Omron) was used for the inhalation. Antigen induction in the test animals was carried out 13 to 15 days after the final sensitization, in the same plastic box as that for the sensitization. For it, the test animals were made to inhale 1% (w/v) OA solution for 15 minutes to induce reaction. Those of the control group with no OA inhalation were made to inhale saline.
In this stage, a histamine H1-receptor antagonist, pyrilamine (by Sigma Aldrich) was intravenously administered (2 mg/kg) to the test animals 30 minutes before the antigen induction, for evading animal death owing to anaphylactic shock. Orotic acid, zinc orotate and a PDE4 inhibitor (rolipram, obtained through chemical synthesis) were orally administered one hour before the antigen induction. To those of the control group not administered with orotic acid, zinc orotate or rolipram, 0.5% (w/v) MC solution was administered.
24 to 72 hours after the antigen induction, the bronchovesicles of the test animals were washed (BAL). Namely, the sensitized guinea pigs were anesthetized with pentobarbital (intravenous-administration, 100 mg/kg), and 5 ml of saline was injected into the guinea pigs via a tracheal cannula through a disposable syringe (by Terumo). In about 5 seconds, the saline injected into the guinea pigs was recovered. This operation was repeated twice to collect the bronchovesicular washing fluid (BALF). BALF was centrifuged at 2500 rpm (1250 ×g) at 4° C. for 10 minutes. The supernatant was removed by suction, and the deposited cells were suspended in one ml of saline. In the suspension, the number of all leucocytes was counted with an automatic cell counter (Celltec MEK-4300, by Nippon Kodensha). A part of the cells were formed into a smear with Cytospin III (by Shand on Southern Instruments). […] Specifically, eosinophils (Eos), neutrophils (Neu), macrophages (Mac), lymphocytes (Lym) and other cells (Other) were counted, and their ratio was calculated. The number of the respective cells was calculated by multiplying the number of all leucocytes by the ratio of the cells counted in the fraction.
The data obtained were expressed as the mean value±standard error thereof. A statistical analysis soft SAS was used for significance test. For significance test of the two groups, Student's t-test was carried out; and for comparison test of multiple groups, Bartlet test was followed by 1-way ANOVA and Dunnett's multiple comparison test. […]
Orotic acid was orally administered 1 hour before the OA inhalation. The data obtained are expressed as the mean value ±standard error of 9 or 10 cases.
Zinc orotate was orally administered 1 hour before the OA inhalation. The data obtained are expressed as the mean value±standard error of 9 or 10 cases. […]

[4] = 100 mg/kg orally 1 hour before OA antigen induction
[5] = 100 or 300 mg/kg orally 1 hour before OA antigen induction

Molecule	PIP increase (ΔPIP) induced by intravenous ACh, Post value [1]	PIP increase (ΔPIP) induced by intravenous ACh, Pre value [1]	Difference between Pre value and Post value of ACh-induced PIP increase [1]	Influence on ACh-induced airway contraction ([1]; FIG. 1, 30 mg/kg intraduodenal)	Statistical significance of airway hypersensitiveness inhibition ([2]; dose of 30 mg/kg to the duodenum, versus MC control, p<0.05)	ID50 of airway hypersensitiveness inhibition [2]	Airway hypersensitiveness inhibition versus control group [2]	Number of eosinophils invaded in BALF [3, 4]	Number of the total cells invaded in BALF [3, 4]	Effect against cell invasion, 24 hours compared with 48 hours after antigen induction ([3]; orally one hour before antigen induction, not illustrated)	Number of eosinophils invaded in BALF [3, 5]	Number of the total cells invaded in BALF [3, 5]
O=C(O)c1cc(=O)[nH]c(=O)[nH]1 [orotic acid, uracil-4-carboxylic acid]	7.33±1.20 cmH2O	7.50±1.04 cmH2O	no significant difference	did not have any influence on airway contraction	showed a statistical significance	20.1 mg/kg	showed airway hypersensitiveness inhibition that depends on the increase in the dose	decreased	decreased	–	–	–
COc1ccc(C2CNC(=O)C2)cc1OC1CCCC1 (centres unmarked) [rolipram, reference compound]	–	–	–	–	–	–	–	–	–	any significant difference in the cell invasion was not found between 24 hours and 48 hours	–	–
zinc orotate	8.00±1.44 cmH2O	7.67±1.20 cmH2O	no significant difference	–	–	16.2 mg/kg	showed airway hypersensitiveness inhibition that depends on the increase in the dose	–	–	–	decreased	decreased
